# Experimental data: patent US11168073B2, “3,3-difluoroallylamines or salts thereof and pharmaceutical compositions comprising the same” (YUHAN CORPORATION, priority 2018, dated 2021)
# Where a name gives a salt, the structure may show the parent alone. Read-outs that look alike come from different tables or passages of the source.
# How the values were obtained:
# Format in all cases: biochemical
# [1] = target: T1, recombinant human VAP-1 (Homo sapiens, UniProt Q16853); experiment: Activity evaluation on recombinant human VAP-1 (Amplex Red/HRP-coupled hydrogen peroxide assay, benzylamine substrate); settings: read-out: Inhibitory Activity (IC50, nM) human VAP-1
# T1 construct: purchased R&D systems
# T1 sequence (Q16853 1-763): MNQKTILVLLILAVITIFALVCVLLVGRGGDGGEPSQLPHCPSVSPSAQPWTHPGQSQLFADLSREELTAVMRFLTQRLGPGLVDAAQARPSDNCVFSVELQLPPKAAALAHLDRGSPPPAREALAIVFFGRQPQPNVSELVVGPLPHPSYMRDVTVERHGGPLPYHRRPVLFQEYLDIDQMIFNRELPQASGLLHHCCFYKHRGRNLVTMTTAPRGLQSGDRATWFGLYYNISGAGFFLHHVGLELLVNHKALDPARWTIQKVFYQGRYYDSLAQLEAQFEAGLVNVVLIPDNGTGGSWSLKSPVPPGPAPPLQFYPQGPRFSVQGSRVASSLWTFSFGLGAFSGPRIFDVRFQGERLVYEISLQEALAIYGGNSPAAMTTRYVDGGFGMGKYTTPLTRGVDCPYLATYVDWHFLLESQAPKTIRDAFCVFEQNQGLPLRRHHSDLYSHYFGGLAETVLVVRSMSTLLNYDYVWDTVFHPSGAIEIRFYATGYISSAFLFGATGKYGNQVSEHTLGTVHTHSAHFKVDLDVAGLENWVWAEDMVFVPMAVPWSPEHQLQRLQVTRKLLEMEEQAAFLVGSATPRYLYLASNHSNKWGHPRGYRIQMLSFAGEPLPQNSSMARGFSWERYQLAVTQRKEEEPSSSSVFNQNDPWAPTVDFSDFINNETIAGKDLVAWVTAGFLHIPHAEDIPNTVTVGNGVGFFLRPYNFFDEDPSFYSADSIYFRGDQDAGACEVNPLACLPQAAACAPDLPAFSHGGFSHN
# In short: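 Hydrogen peroxide from benzylamine (1 mM) oxidation by human recombinant VAP-1 detected via HRP-coupled Amplex Red (200 uM) fluorescence, kinetic over 1–2 h. Enzyme and compound preincubated 30 min at 37 °C, pH 7.4 phosphate; 8-point dose response, signal-rate decrease versus DMSO control fitted to four-parameter logistic for IC50.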
# [2] = target: T2, recombinant human DAO (diamine oxidase) (Homo sapiens, UniProt P19801); experiment: Activity evaluation on recombinant human DAO (Amplex Red/HRP-coupled assay, 1 mM putrescine substrate); settings: read-out: Inhibitory Activity (IC50, nM) DAO
# T2 construct: purchased R&D systems
# T2 sequence (P19801 20-751): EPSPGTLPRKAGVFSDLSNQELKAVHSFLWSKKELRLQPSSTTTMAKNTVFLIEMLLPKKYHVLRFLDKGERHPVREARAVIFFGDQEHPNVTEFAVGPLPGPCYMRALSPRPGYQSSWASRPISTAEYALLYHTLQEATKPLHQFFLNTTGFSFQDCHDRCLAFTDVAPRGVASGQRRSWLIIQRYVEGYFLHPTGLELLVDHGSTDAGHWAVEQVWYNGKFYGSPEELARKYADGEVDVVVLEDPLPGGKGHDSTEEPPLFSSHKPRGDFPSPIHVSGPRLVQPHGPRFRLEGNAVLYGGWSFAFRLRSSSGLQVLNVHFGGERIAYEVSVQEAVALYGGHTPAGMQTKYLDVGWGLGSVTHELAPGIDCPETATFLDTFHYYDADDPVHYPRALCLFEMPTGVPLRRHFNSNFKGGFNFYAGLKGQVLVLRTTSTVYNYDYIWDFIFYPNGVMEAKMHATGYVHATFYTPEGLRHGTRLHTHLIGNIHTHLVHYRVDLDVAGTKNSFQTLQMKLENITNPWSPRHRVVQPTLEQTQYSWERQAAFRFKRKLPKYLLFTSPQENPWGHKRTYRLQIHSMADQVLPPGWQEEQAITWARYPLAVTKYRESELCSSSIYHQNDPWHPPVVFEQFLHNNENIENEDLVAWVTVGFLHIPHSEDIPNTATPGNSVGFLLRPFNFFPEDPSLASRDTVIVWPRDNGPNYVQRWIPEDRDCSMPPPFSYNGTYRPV
# In short: (§1)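 Using an HRP-coupled Amplex Red readout (544/590 nm, kinetic over 1–2 h), IC50 values were fitted by 4-parameter logistic model to percent decrease in signal rate against DMSO control. Compounds (1:3 dilutions, 8 points, <1% DMSO) sat 30 min at 37 °C with enzyme in pH 7.4 phosphate buffer before substrate, 200 uM Amplex Red and HRP were added.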
# [3] = target: T3, recombinant human MAO-A (monoamine oxidase-A) (Homo sapiens, UniProt P21397); experiment: Activity evaluation on recombinant human MAO-A (Amplex Red/HRP-coupled assay, 0.5 mM tyramine substrate); settings: read-out: Inhibitory Activity (IC50, nM) MAO-A
# T3 construct: purchased Sigma-Aldrich
# T3 sequence (P21397 1-527): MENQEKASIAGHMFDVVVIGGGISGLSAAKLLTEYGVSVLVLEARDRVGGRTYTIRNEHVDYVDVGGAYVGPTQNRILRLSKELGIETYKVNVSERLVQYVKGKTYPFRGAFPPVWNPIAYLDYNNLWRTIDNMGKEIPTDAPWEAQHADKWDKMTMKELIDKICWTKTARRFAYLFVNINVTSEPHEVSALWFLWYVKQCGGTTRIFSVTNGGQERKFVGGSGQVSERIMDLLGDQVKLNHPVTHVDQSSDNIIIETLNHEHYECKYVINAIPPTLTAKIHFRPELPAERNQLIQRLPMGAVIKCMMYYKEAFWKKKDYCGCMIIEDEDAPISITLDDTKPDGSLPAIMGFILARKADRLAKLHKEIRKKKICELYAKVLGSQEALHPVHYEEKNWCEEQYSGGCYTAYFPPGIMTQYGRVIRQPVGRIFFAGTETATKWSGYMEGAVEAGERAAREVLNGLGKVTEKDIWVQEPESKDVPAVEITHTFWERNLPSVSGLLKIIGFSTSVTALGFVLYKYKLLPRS
# In short: as §1
# [4] = target: T4, recombinant human MAO-B (monoamine oxidase-B) (Homo sapiens, UniProt P27338); experiment: Activity evaluation on recombinant human MAO-B (Amplex Red/HRP-coupled assay, 1 mM benzylamine substrate); settings: read-out: Inhibitory Activity (IC50, nM) MAO-B
# T4 construct: purchased Sigma-Aldrich
# T4 sequence (P27338 1-520): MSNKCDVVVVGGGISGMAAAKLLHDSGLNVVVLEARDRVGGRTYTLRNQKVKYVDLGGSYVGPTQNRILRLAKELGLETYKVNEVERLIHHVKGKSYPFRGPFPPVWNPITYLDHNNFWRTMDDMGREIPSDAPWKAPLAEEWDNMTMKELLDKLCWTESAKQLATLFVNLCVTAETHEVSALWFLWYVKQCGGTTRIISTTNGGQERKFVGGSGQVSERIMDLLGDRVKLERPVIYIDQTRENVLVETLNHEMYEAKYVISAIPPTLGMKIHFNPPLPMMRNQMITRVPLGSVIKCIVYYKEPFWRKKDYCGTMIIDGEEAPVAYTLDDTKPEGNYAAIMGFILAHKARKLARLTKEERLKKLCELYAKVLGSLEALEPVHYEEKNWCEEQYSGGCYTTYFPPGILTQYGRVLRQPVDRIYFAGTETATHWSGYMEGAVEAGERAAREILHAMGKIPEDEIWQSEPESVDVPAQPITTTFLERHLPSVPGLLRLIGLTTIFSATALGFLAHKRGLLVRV
# In short: as §1
# [5] = recombinant human VAP-1, 30 min preincubation at 37° C., 1 mM benzylamine
# [6] = recombinant human VAP-1, benzylamine substrate
SMILES,"IC50 [1, 5] [nM]",IC50 ([2]; 1 mM putrescine) [nM],IC50 ([3]; 0.5 mM tyramine) [nM],IC50 ([4]; 1 mM benzylamine) [nM],"IC50 [1, 6] [nM]",IC50 ([2]; 1 mM putrescine substrate) [nM],IC50 ([3]; 0.5 mM tyramine substrate) [nM],IC50 ([4]; 1 mM benzylamine substrate) [nM]
"NCC(Cn1ncn(-c2ccc(-c3ccc(C(F)(F)F)nc3)nc2)c1=O)=C(F)F [Example 40, 2-[2-(aminomethyl)-3,3-difluoro-allyl]-4-[6-[6-(trifluoromethyl)-3-pyridyl]-3-pyridyl]-1,2,4-triazol-3-one Trifluoroacetate]",0.3,12,> 100000,200,–,–,–,–
"CN1C(=O)CCc2cc(-c3ccc(-n4cnn(CC(CN)=C(F)F)c4=O)cn3)ccc21 [Example 44, 6-[5-[1-[2-(aminomethyl)-3,3-difluoro-allyl]-5-oxo-1,2,4-triazol-4-yl]-2-pyridyl]-1-methyl-3,4-dihydroquinolin-2-one Trifluoroacetate]",0.3,14,> 100000,110,–,–,–,–
"Cc1cc(-c2ccccc2Cn2cnn(CC(CN)=C(F)F)c2=O)cc2c1NC(=O)CC2 [Example 283, 6-[2-[[1-[2-(aminomethyl)-3,3-difluoro-allyl]-5-oxo-1,2,4-triazol-4-yl]methyl]phenyl]-8-methyl-3,4-dihydro-1H-quinolin-2-one Trifluoroacetate]",–,–,–,–,154,> 100000,> 100000,> 100000
"Cc1cc(-c2cnc3[nH]ccc3c2)cnc1-n1cnn(CC(CN)=C(F)F)c1=O [Example 228, 2-[2-(aminomethyl)-3,3-difluoro-allyl]-4-[3-methyl-5-(1H-pyrrolo[2,3-b]pyridin-5-yl)-2-pyridyl]-1,2,4-triazol-3-one Trifluoroacetate]",–,–,–,–,0.6,7700,> 100000,3300
"CCn1cc(-c2cnc(-n3cnn(CC(CN)=C(F)F)c3=O)c(F)c2)cn1 [Example 88, 2-[2-(aminomethyl)-3,3-difluoro-allyl]-4-[5-(1-ethylpyrazol-4-yl)-3-fluoro-2-pyridyl]-1,2,4-triazol-3-one Trifluoroacetate]",0.3,230,> 100000,8200,–,–,–,–
"Cc1cc(-c2ccc3sc(N)nc3c2)cnc1-n1cnn(CC(CN)=C(F)F)c1=O [Example 226, 4-[5-(2-amino-1,3-benzothiazol-5-yl)-3-methyl-2-pyridyl]-2-[2-(aminomethyl)-3,3-difluoro-allyl]-1,2,4-triazol-3-one Trifluoroacetate]",–,–,–,–,0.5,> 100000,> 100000,11000
"Cn1cc(-c2csc(Cn3cnn(CC(CN)=C(F)F)c3=O)c2)ccc1=O [Example 190, 5-[5-[[1-[2-(aminomethyl)-3,3-difluoro-allyl]-5-oxo-1,2,4-triazol-4-yl]methyl]-3-thienyl]-1-methyl-pyridin-2-one Trifluoroacetate]",–,–,–,–,1.4,63000,> 100000,> 100000
"Cc1cc(-c2cccc(-n3cnn(CC(CN)=C(F)F)c3=O)c2C)cc2c1NC(=O)CC2 [Example 258, 6-[3-[1-[2-(aminomethyl)-3,3-difluoro-allyl]-5-oxo-1,2,4-triazol-4-yl]-2-methyl-phenyl]-8-methyl-3,4-dihydro-1H-quinolin-2-one Trifluoroacetate]",–,–,–,–,2.5,> 100000,> 100000,> 100000
"CCn1cc(-c2ccc3sc(Cn4cnn(CC(CN)=C(F)F)c4=O)cc3c2)ccc1=O [Example 207, 5-[2-[[1-[2-(aminomethyl)-3,3-difluoro-allyl]-5-oxo-1,2,4-triazol-4-yl]methyl]benzothiophen-5-yl]-1-ethyl-pyridin-2-one Trifluoroacetate]",–,–,–,–,0.7,> 100000,> 100000,> 100000
"NCC(Cn1ncn(Cc2ccc(-c3ccc(N4CCNCC4)nc3)s2)c1=O)=C(F)F [Example 114, 2-[2-(aminomethyl)-3,3-difluoro-allyl]-4-[[5-(6-piperazin-1-yl-3-pyridyl)-2-thienyl]methyl]-1,2,4-triazol-3-one Ditrifluoroacetate]",4.9,970,> 100000,> 100000,–,–,–,–
